Results from patent US9253987B2, “Antimicrobial agents and methods of use” (Hyprotek, Inc., priority 2010, dated 2016).

Tested on: leukoplakia lesions within the oral cavity displaying invasive squamous cell carcinoma
Assay: Topical treatment of oral leukoplakia / squamous cell carcinoma lesion in a human subject
Format: in vivo
Settings: same human subject, before the antimicrobial agent
Text: In addition to the being diagnosed with chronic periodontitis, the subject developed leukoplakia lesions within the oral cavity displaying invasive squamous cell carcinoma with surrounding carcinoma-in-situ and dysplasia in the right mandibular gingival area. Visual inspection of the lesions appeared as white, translucent patches. […] Previously, the subject's dentists had attempted to treat the chronic periodontitis and leukoplakia with a succession of oral antibiotics, antifungal fluconazole and prolonged courses of chlorhexidine oral rinses, in addition to vigorous dental hygiene.
A single topical application of the antimicrobial agent of the present application in solution form was applied to the right lower mandibular gingival area while the right upper mandibular gingival area remained untreated. Visual inspection of the antimicrobial agent-treated area produced noticeable reduction in both the size and severity of the lesion within approximately 10 hours. Continued daily or twice-daily applications of the antimicrobial agent solution to the right lower mandibular gingival area over 12 days were effective to further reduce the lesion to approximately 1 mm. […] In contrast, the pathology of the untreated right upper mandibular gingival area continued to display signs of invasive squamous cell carcinoma and was only finally removed by surgery post treatment.

| SMILES | outcome of previous therapy of chronic periodontitis and leukoplakia |
| --- | --- |
| OC(Cn1cncn1)(Cn1cncn1)c1ccc(F)cc1F [fluconazole] | failed significantly to improve their condition |
| [H]/N=C(\N/C(=N/[H])NCCCCCCNC(=N)NC(=N)Nc1ccc(Cl)cc1)Nc1ccc(Cl)cc1 [chlorhexidine] | failed significantly to improve their condition |
